Results as given in US7691965B2, “Helical synthetic peptides that stimulate cellular cholesterol efflux” (The Regents of the University of California, priority 2002, dated 2010).
Where a SMILES comes first, the peptide text is derived from it.

Tests used:
[1] = Relative lipid binding affinity by surface balance technique (monolayer exclusion pressure); type: physicochemical; details: for Monolayer exclusion pressure: surface balance technique
Excerpt: (§1) Relative Lipid Binding Affinity, Hydrophobicity, and Amphiphilicity of Synthetic Peptides—In some experiments, the relative lipid binding affinity of unique peptides was quantified using a surface balance technique (Gillotte, K L. et al., J. Biol. Chem., 274:2021-2028 (1999)). For routine analyses, a turbid solution of dimyristoylphosphatidylcholine (DMPC) was used to assess the relative capacity of synthetic peptides to solubilize phospholipid as described (Palgunachari, M. N. et al., Arterioscler. Thromb. Vasc. Biol., 16:328-338 (1996); McLean, L. R. and Hagaman, K. A., Biochim. Biophys. Acta, 1167:289-295 (1993)). The DMPC was used at a final concentration of 0.08 mg/ml in 10 mM Tris-saline (pH 7.4). The final weight ratio of peptides relative to DMPC was 1:1. The absorbance (400 nm) of samples was monitored continuously over a period of 30 min at 25° C. Hydrophobicity of helical peptides was calculated using the consensus scale (Eisenberg D., Annu. Rev. Biochem., 53:593-623 (1984)). The hydrophobic moment (kcal/mol) of synthetic peptides, which is a measure of helix amphiphilicity, was calculated as described by Eisenberg et al. (Eisenberg, D. et al., Nature, 299:371-374 (1982)).

[2] = DMPC clearance assay (solubilization of a turbid phospholipid solution); type: physicochemical
Excerpt: as §1, with “Peptides-In” for “Peptides—In”, “[…].,” for “Hagaman, K. A.,”

ABCA1 [3] = biological target: T1, ABCA1 (Mus musculus, UniProt P41233); assay: Cellular cholesterol efflux from [3H]cholesterol-labeled J774 macrophages with and without cAMP analog; type: cell-based; parameters: endogenous in cells; host or cells: J774 macrophages treated with a cAMP analog (CPT-cAMP or 8-bromo-cAMP); details: for concentration at which cholesterol efflux reached maximal levels: cAMP-treated J774 cells; for ABCA1-dependent cholesterol efflux (result in words): lipid-free acceptor, J774 macrophages with vs without cAMP analog
T1 sequence (P41233 whole entry): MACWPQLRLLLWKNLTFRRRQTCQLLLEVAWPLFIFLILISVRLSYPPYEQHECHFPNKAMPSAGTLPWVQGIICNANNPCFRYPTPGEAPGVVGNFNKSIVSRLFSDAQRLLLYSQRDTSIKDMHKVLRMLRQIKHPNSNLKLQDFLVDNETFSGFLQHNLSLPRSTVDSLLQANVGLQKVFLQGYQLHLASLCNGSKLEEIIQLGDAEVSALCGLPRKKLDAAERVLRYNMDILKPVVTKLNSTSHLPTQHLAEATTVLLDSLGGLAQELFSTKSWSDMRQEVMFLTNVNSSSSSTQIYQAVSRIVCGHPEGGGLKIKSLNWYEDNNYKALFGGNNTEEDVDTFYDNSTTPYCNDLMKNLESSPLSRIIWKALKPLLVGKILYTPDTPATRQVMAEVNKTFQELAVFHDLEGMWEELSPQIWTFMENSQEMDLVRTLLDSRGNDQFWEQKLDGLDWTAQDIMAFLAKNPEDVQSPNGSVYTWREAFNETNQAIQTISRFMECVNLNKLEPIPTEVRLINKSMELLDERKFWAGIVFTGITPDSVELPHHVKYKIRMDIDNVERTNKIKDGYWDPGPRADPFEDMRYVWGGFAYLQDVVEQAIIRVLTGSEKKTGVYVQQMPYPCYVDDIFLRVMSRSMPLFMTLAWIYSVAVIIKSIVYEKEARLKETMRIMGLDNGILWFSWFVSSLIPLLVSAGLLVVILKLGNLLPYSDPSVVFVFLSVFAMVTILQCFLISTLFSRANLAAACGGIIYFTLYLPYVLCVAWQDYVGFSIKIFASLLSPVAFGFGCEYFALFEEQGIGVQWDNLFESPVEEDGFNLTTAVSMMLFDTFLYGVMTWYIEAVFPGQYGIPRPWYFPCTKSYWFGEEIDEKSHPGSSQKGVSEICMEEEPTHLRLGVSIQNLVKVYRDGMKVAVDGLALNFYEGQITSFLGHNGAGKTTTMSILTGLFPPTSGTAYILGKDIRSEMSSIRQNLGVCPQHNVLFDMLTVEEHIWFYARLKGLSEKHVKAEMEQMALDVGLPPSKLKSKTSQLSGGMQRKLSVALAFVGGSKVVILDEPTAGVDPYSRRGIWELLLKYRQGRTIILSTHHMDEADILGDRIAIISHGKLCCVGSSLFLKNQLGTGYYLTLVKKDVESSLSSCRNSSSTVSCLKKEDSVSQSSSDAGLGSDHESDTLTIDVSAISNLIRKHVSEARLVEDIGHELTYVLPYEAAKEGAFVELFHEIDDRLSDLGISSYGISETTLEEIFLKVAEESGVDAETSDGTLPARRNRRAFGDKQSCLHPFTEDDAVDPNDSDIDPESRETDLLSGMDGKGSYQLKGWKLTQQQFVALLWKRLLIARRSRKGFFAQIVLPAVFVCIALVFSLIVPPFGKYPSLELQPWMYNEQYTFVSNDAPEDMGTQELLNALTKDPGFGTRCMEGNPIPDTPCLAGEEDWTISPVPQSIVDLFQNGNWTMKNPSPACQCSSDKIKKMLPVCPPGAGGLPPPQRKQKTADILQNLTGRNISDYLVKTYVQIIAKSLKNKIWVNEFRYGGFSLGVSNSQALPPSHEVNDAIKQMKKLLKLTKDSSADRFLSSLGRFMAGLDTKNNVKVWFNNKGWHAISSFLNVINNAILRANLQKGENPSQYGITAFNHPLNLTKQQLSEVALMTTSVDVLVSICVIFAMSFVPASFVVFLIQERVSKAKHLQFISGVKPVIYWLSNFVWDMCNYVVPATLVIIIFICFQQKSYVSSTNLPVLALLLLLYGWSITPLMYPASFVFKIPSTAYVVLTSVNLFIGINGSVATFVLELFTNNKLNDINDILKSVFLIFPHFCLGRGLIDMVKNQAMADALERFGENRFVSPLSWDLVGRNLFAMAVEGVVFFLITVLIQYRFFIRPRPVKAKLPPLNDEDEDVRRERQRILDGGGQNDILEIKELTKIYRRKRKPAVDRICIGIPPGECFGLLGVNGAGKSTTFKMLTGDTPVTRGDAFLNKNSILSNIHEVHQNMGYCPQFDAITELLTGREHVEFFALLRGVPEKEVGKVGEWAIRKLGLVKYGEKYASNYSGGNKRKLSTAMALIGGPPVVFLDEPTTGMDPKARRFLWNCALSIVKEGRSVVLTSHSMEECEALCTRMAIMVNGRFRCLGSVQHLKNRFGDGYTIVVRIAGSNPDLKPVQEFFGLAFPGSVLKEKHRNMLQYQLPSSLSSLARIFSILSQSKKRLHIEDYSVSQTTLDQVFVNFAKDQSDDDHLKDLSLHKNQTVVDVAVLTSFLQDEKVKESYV
Excerpt: Suitable cholesterol efflux assays are described in, e.g., Bielicki, J. K and Oda, M. N., Biochemistry, 41:2089-2096 (2002); Jia, Z. et al., Biochem. Biophys. Res. Common., 297:206-213 (2002). In some embodiments, a polypeptide known to mediate cholesterol efflux (e.g., helix 9/10 of Apo A-I) is used to screen for additional mediators of cholesterol efflux in a cell based assay. For example, cell lines in which cholesterol efflux can be enhanced using a cAMP analog that up-regulates ABCA1 protein expression (e.g., J774 macrophages) can conveniently be used to assess the ability of an Apo A-I, Apo A-II, Apo A-IV, Apo E, Apo C-I, Apo C-II, Apo C-III, or Serum Amyloid A peptide to mediate cholesterol efflux. The cells are incubated with labeled cholesterol (e.g., [^3H]cholesterol) under conditions appropriate for cholesterol uptake by the cells. cAMP or cAMP analogs (e.g., CPT-cAMP) is incubated with the cells for a suitable time before the initiation of cellular cholesterol efflux, i.e., prior to contacting the cells with helix 9/10 of Apo A-I or the test compound. Measurement of labeled cholesterol appearing in the medium is used to determine the cholesterol efflux mediating activity of the test compound.
Cellular Cholesterol Efflux Protocol—J774 macrophages were used to assess the cholesterol efflux properties of synthetic amphipathic α-helical peptides (Bielicki, J. K and Oda, M. N., Biochemistry, 41:2089-2096 (2002); Jia, Z. et al., Biochem. Biophys. Res. Common., 297:206-213 (2002)). This cell line was chosen because cholesterol efflux can be enhanced using a cAMP analog that up-regulates ABCA1 protein expression. The cells were seeded onto 24-well culture plates and labeled for 48 h with [^3H]cholesterol in RPMI 1640 supplemented with 1% fetal bovine serum. The cAMP analog CPT-cAMP was added (0.3 mM, final concentration) to the cells at least 12 h before the initiation of cellular cholesterol efflux. Synthetic peptides in lipid-free form were added to cells in serum-free RPMI. The lipid-free form of full-length recombinant apoA-I was used as a positive control to define apparent ABCA1-dependent cholesterol efflux in the presence and absence of cAMP stimulation. Efflux results were expressed as a percentage of the initial cellular [^3H] appearing in the medium as a function of time subtracting the background efflux obtained using serum-free medium alone.

ABCA1 [4] = biological target: T1, ABCA1; assay: ABCA1 stabilization: immunoblot of ABCA1 protein in J774 macrophage membranes after cAMP withdrawal; type: cell-based; parameters: J774 macrophages were used to assess relative ABCA1 protein levels in the presence and absence of synthetic peptides; endogenous in cells; host or cells: J774 macrophages treated with a cAMP analog (CPT-cAMP or 8-bromo-cAMP); details: 20 μg/ml peptide, 6 h without cAMP, J774 macrophages
Protocol: J774 macrophages were incubated (18 h) with 0.5 mM 8-bromo-cAMP in medium containing 0.1% bovine serum albumin to up-regulate ABCA1 protein expression. Washed cells were subsequently exposed for 6 h to bovine serum albumin medium with (+) or without (−) 8-bromo-cAMP and the indicated synthetic peptides (20 μg/ml). None refers to no peptides. The cellular membrane content of ABCA1 protein was measured by immunoblot analysis.
ABCA1 Stabilization—J774 macrophages were used to assess relative ABCA1 protein levels in the presence and absence of synthetic peptides. Cells were grown in 10% fetal bovine serum, extensively rinsed, and incubated (18 h) with Dulbecco's modified Eagle's medium containing 0.1% bovine serum albumin plus the cAMP analog 8-bromo-cAMP. Cells were next exposed to synthetic peptides or serum-free medium in the absence of the cAMP stimulus to evaluate whether ABCA1 protein was stabilized or degraded. Relative levels of ABCA1 protein were assessed by immunoblot analysis of cell membranes (Oram, J. F. et al., J. Biol. Chem., 278:52379-52385 (2003)). ABCA1 was visualized using an enhanced chemiluminescence detection assay.
To assess ABCA1 stabilization, J774 macrophages were treated with a cAMP analog to up-regulate ABCA1 protein expression and then incubated for 6 h without cAMP. In the absence of inducer, ABCA1 protein is rapidly degraded in these cells (FIG. 9). […] Thus, it appears that the helical combinations that stimulate cholesterol efflux also stabilize the ABCA1 transporter.

ABCA1 [5] = biological target: T1, ABCA1; assay: as above; type: cell-based; parameters: J774 macrophages were used to assess relative ABCA1 protein levels in the presence and absence of synthetic peptides; endogenous in cells; host or cells: J774 macrophages treated with a cAMP analog (CPT-cAMP or 8-bromo-cAMP); details: concentration dependence studies, J774 macrophages

CC(=O)N[C@@H](CC(C)C)C(=O)N[C@@H](CCCCN)C(=O)N[C@@H](CC(C)C)C(=O)N[C@@H](CC(C)C)C(=O)N[C@@H](CC(=O)O)C(=O)N[C@@H](CC(N)=O)C(=O)N[C@@H](Cc1c[nH]c2ccccc12)C(=O)N[C@@H](CC(=O)O)C(=O)N[C@@H](CO)C(=O)N[C@H](C(=O)N[C@H](C(=O)N[C@@H](CO)C(=O)N[C@H](C(=O)N[C@@H](Cc1ccccc1)C(=O)N[C@@H](CO)C(=O)N[C@@H](CCCCN)C(=O)N[C@@H](CC(C)C)C(=O)N[C@@H](CCCNC(=N)N)C(=O)N[C@@H](CCC(=O)O)C(=O)N[C@@H](CCC(N)=O)C(=O)N[C@@H](CC(C)C)C(=O)NCC(=O)N1CCC[C@H]1C(=O)N[C@@H](C)C(=O)N[C@@H](CC(C)C)C(=O)N[C@@H](CCC(=O)O)C(=O)N[C@@H](CC(=O)O)C(=O)N[C@@H](CC(C)C)C(=O)N[C@@H](CCCNC(=N)N)C(=O)N[C@@H](CCC(N)=O)C(=O)NCC(=O)N[C@@H](CC(C)C)C(=O)N[C@@H](CC(C)C)C(N)=O)[C@@H](C)O)[C@@H](C)O)C(C)C [Helical peptide 1/9] (Ac-LKLLDNWDSVTSTFSKLREQLGPALEDLRQGLL-NH2)
lipid binding affinity (surface balance technique), result in words [1]: identical
Monolayer exclusion pressure [1]: 31 dynes/cm
DMPC clearance [2]: +
concentration at which cholesterol efflux reached maximal levels (ABCA1 [3]): 50 µg/mL
ABCA1-dependent cholesterol efflux (result in words) (ABCA1 [3]): stimulated cholesterol efflux in the absence and presence of CAMP stimulation similar to full-length apoA-I
ABCA1 stabilization (result in words) (ABCA1 [4]): stabilized cellular ABCA1 protein to levels comparable with those observed when cells were exposed continuously to cAMP
lowest concentration that prevented ABCA1 degradation (ABCA1 [5]): 10 µg/mL

CC(=O)N1CCC[C@H]1C(=O)N[C@@H](C)C(=O)N[C@@H](CC(C)C)C(=O)N[C@@H](CCC(=O)O)C(=O)N[C@@H](CC(=O)O)C(=O)N[C@@H](CC(C)C)C(=O)N[C@@H](CCCNC(=N)N)C(=O)N[C@@H](CCC(N)=O)C(=O)NCC(=O)N[C@@H](CC(C)C)C(=O)N[C@@H](CC(C)C)C(=O)N1CCC[C@H]1C(=O)N[C@H](C(=O)N[C@@H](CC(C)C)C(=O)N[C@@H](CCC(=O)O)C(=O)N[C@@H](CO)C(=O)N[C@@H](Cc1ccccc1)C(=O)N[C@@H](CCCCN)C(=O)N[C@H](C(=O)N[C@@H](CO)C(=O)N[C@@H](Cc1ccccc1)C(=O)N[C@@H](CC(C)C)C(=O)N[C@@H](CO)C(=O)N[C@@H](C)C(=O)N[C@@H](CC(C)C)C(=O)N[C@@H](CCC(=O)O)C(=O)N[C@@H](CCC(=O)O)C(=O)N[C@@H](Cc1ccc(O)cc1)C(=O)N[C@H](C(=O)N[C@@H](CCCCN)C(=O)N[C@@H](CCCCN)C(=O)N[C@@H](CC(C)C)C(=O)N[C@@H](CC(N)=O)C(N)=O)[C@@H](C)O)C(C)C)C(C)C [Helical peptide 9/10] (Ac-PALEDLRQGLLPVLESFKVSFLSALEEYTKKLN-NH2)
Monolayer exclusion pressure [1]: 36 dynes/cm
DMPC clearance [2]: +
potency in mediating ABCA1-dependent cholesterol efflux relative to the 1/9 chimera (ABCA1 [3]; FIGS. 2B versus 3C): 2 fold
concentration giving maximal ABCA1 stabilization and cholesterol efflux (ABCA1 [3]; both ABCA1 stabilization and cholesterol efflux): 10 to 25 µg/mL
concentration at which cholesterol efflux reached maximal levels (ABCA1 [3]): 25 µg/mL
ABCA1-dependent cholesterol efflux (result in words) (ABCA1 [3]): stimulated cholesterol efflux in an ABCA1-dependent manner
ABCA1 stabilization (result in words) (ABCA1 [4]): stabilized cellular ABCA1 protein to levels comparable with those observed when cells were exposed continuously to cAMP
lowest concentration that prevented ABCA1 degradation (ABCA1 [5]): 10 µg/mL
